Data on 3 compounds can be found in ChEMBL document CHEMBL3392960, “Discovery of thienoimidazole-based HCV NS5A inhibitors. Part 1: C2-symmetric inhibitors with diyne and biphenyl linkers” (Bioorg Med Chem Lett, 2015).

For orientation: EC50 means the concentration at which the effect is half-maximal. The CC50 is the concentration at which the toxic effect on the cells reaches its halfway point. The low end stands for harm at low concentration, the high end for better tolerance by the cells. Broadly, the clearance is a measure of how efficiently the substance is removed, as volume per time. Low values mean inefficient removal, high ones efficient removal. Broadly, the half-life is the time needed for the level to fall by half in the phase considered. Read a high half-life as slow decline.

The test system of series [1] is Hepatitis C virus. The series is described as follows: Antiviral activity against Hepatitis C virus genotype 1a infected in W11.8 cells assessed as decrease in NS5A expression in replicon cell after 4 days by luminescence based ELISA. The format is functional, Hepacivirus hominis. The note with it: subtype 1a, W11.8, 96 h. (In general: A replicon is a self-replicating genome or part of one, used to study replication in cells.)

Series [2] relates to Hepatitis C virus. The series is described as follows: Antiviral activity against Hepatitis C virus genotype 1b infected in human Huh-5.2 cells assessed as decrease in HCV replicon RNA replication after 4 days by luciferase assay. The format is functional, cell-based, Hepacivirus hominis. As to conditions: Huh-5-2, 96 h.
Series [3] is described as follows: Cytotoxicity against human HuhET cells by [3H]thymidine incorporation assay. The format is cell-based. A general note: Incorporation of labelled thymidine or its analogues reports DNA synthesis.
Series [4] in a line: Clearance in iv dosed Sprague-Dawley rat. The format is ADME, organism-based. The note with it: in vivo.
Series [5] in a line: Half life in iv dosed Sprague-Dawley rat. The format is ADME, organism-based. The note with it: in vivo.
A short description of series [6]: Volume of distribution at steady state in iv dosed Sprague-Dawley rat. The format is ADME, organism-based. As to conditions: in vivo, read-out: Vdss.

Some results are limits rather than exact numbers.

`COC(=O)N[C@H](C(=O)N1CCC[C@H]1c1nc2sc(C#CC#Cc3cc4[nH]c([C@@H]5CCCN5C(=O)[C@@H](NC(=O)OC)C(C)C)nc4s3)cc2[nH]1)C(C)C`: the EC50 stood at 281 nM in the series with Hepatitis C virus [1] and 0.386 nM in the series with Hepatitis C virus [2]. Besides, the CC50 in series [3] was 6100 nM. The compound further had a clearance in series [4] of 8.2 mL/min/kg. This compound also gave a half-life in series [5] of 5.2 h. Also, the Vd in series [6] is 3.3 L/kg.

Turning to `COC(=O)N[C@H](C(=O)N1C[C@@H](C)C[C@H]1c1nc2sc(C#CC#Cc3cc4[nH]c([C@@H]5C[C@H](C)CN5C(=O)[C@@H](NC(=O)OC)C(C)C)nc4s3)cc2[nH]1)C(C)C`, the EC50 in the series with Hepatitis C virus [1] amounted to 184 nM; with Hepatitis C virus [2], 0.17 nM. Also, in series [3], the CC50 is above 20000 nM.

With `COC(=O)N[C@H](C(=O)N1C[C@@H](C)C[C@H]1c1nc2sc(-c3ccc(-c4ccc(-c5cc6[nH]c([C@@H]7C[C@H](C)CN7C(=O)[C@@H](NC(=O)OC)C(C)C)nc6s5)cc4)cc3)cc2[nH]1)C(C)C`, the EC50 was found to be 6 nM with Hepatitis C virus [1] and 0.006 nM with Hepatitis C virus [2]. The same compound returned a CC50 in series [3] above 20000 nM. Further, the clearance in series [4] is 8 mL/min/kg. For the same compound, in series [5], the half-life is 4.5 h. Also, the Vd in series [6] amounted to 2.2 L/kg.
